What was measured:
Staphylococcus aureus = test: Antibacterial activity against Staphylococcus aureus by agar-diffusion test; assay type: functional
Bacillus subtilis = test: Antibacterial activity against Bacillus subtilis by agar-diffusion test; assay type: functional

Compound `COc1cc2cc[n+](C)c(Cc3ccc(Oc4cc(Cc5c6cc(OC)c(OC)cc6cc[n+]5C)ccc4OC)cc3)c2cc1OC` [PHAEANTHARINE] has an MIC (Staphylococcus aureus) of 86 µg/mL and an MIC (Bacillus subtilis) of 74 µg/mL.

— ChEMBL document CHEMBL1151416, “Revised structure of phaeantharine” (1983)
